Measured values: patent US20070060558A1 (PALUMED S.A., priority 2004, published 2007)
Values after ≈ are worked out from the molar mass of the structure shown. Where two headings read alike, the source gives them in different places.

Assays:
[1] = system: Staphylococcus aureus MSSA CIP 4.83; test: Antibacterial activity (MIC/MBC); format: cell-based; conditions: Staphylococcus aureus
[2] = system: S. aureus MRSA clinical isolate; test: Antibacterial activity (MIC); format: cell-based, Staphylococcus aureus; conditions: Staphylococcus aureus
S. aureus MsrA PUL 5054 = test: Antibacterial activity (MIC); format: cell-based; conditions: Staphylococcus aureus
[3] = system: S. aureus VISA CIP 106757; test: Antibacterial activity (MIC); format: cell-based; conditions: Staphylococcus aureus
[4] = system: S. epidermidis MSCNS (D10); test: Antibacterial activity (MIC); format: cell-based; conditions: Staphylococcus epidermidis
[5] = system: S. epidermidis MRCNS (E93); test: Antibacterial activity (MIC); format: cell-based; conditions: Staphylococcus epidermidis
[6] = system: S. pneumoniae PSSP CQI 201; test: Antibacterial activity (MIC); format: cell-based, Streptococcus pneumoniae; conditions: Streptococcus pneumoniae
[7] = system: S. pneumoniae PRSP (CQR 162); test: Antibacterial activity (MIC); format: cell-based; conditions: Streptococcus pneumoniae
S. pyogenes CIP 56.41T = test: Antibacterial activity (MIC/MBC); format: cell-based, Streptococcus pyogenes; conditions: Streptococcus pyogenes, CIP56
[8] = system: E. faecium VRE VanA CIP107387; test: Antibacterial activity (MIC); format: cell-based; conditions: Enterococcus faecium
[9] = system: E. faecalis VRE VanA CIP106996; test: Antibacterial activity (MIC); format: cell-based; conditions: Enterococcus faecalis
[10] = system: E. faecalis VRE VanB CIP106998; test: Antibacterial activity (MIC); format: cell-based; conditions: Enterococcus faecalis
C. difficile CIP 104282 = test: Antibacterial activity (MIC); format: cell-based, Clostridium difficile; conditions: Clostridioides difficile, CIP104282
[11] = system: Staphylococcus aureus MSSA 53.154; test: Murine experimental septicaemia, in vivo efficacy; set-up: species or system mice; conditions: sc
Protocol: Experimental septicaemia was induced in mice as follows. Briefly, male Swiss OF1 mice (IFFA CREDO-Charles River) weighing 18 to 20 grams were infected intraperitoneally with 0.5 mL of a bacterial suspension containing 8.5×10^7 cfu of Staphylococcus aureus MSSA 53.154 (Institut Pasteur). The hybrid molecules were administered subcutaneously at 1 and 6 h post infection. Control and treatment groups at each dose were composed of seven mice. All the infected but untreated control mice died within 9 days. The 50% effective dose (ED50) values were calculated by a computerized program (GraphPad) from the survival rates on day 9 after infection.

[12] = system: Human lung fibroblast cells (ATCC CCL-171); test: Cytotoxicity (MTT) assay; conditions: human, 18 hr
Protocol: Cellular toxicity was measured by a colorimetric assay that makes use of the tetrazolium salt, MTT. Human lung fibroblast cells (ATCC CCL-171) were plated in 96-well plates at 10^4 cells per well and incubated under 5% CO2 at 37° C. for 24 hr to allow adherence of cells to the plate. Test compounds were prepared as a stock solution at 1 mg/mL in 1% DMSO/water and diluted with water for the serial dilutions (500-7.8 μg/mL). Cells underwent a 18 hr treatment under 5% CO2 at 37° C. with experimental drugs. Corresponding controls received either no drug treatment or treatment with SDS (sodium dodecyl sulfate). The optical density of each sample was read on a microplate spectrophotometer reader at 600 nm and cell survival was expressed as a fraction of that of untreated controls. A drug is said cytotoxic when this fraction is ≦−30%

S. pneumoniae PRSP = test: Antibacterial activity (MIC), Table VII; format: cell-based; conditions: Streptococcus pneumoniae; S. pneumoniae PRSP (Table VII); read-out: MIC
[13] = system: E. faecalis VRE CIP 104676; test: Antibacterial activity (MIC/MBC); format: cell-based, Enterococcus faecalis; conditions: Enterococcus faecalis; E. faecalis VRE CIP 104676; read-out: MIC
H. influenzae CIP 102514 = test: Antibacterial activity (MIC/MBC); format: cell-based, Haemophilus influenzae; conditions: Haemophilus influenzae, CIP102514; H. influenzae CIP 102514; read-out: MIC
E. coli CIP 54127 = test: Antibacterial activity (MIC); format: cell-based; conditions: Escherichia coli, CIP54127; E. coli CIP 54127; read-out: MIC
P. aeruginosa CIP 103467 = test: Antibacterial activity (MIC); format: cell-based; conditions: Pseudomonas aeruginosa, CIP103467; P. aeruginosa CIP 103467; read-out: MIC
[14] = system: B. thuringiensis CIP 104676; test: Antibacterial activity (MIC); format: cell-based; conditions: Bacillus thuringiensis, CIP104676; B. thuringiensis CIP 104676; read-out: MIC
[15] = S. aureus MSSA CIP 4.83, read-out: MIC
[16] = S. aureus MRSA clinical isolate, read-out: MIC
[17] = S. aureus VISA CIP 106757, read-out: MIC
[18] = S. epidermidis MSCNS (D10), read-out: MIC
[19] = S. epidermidis MRCNS (E93), read-out: MIC
[20] = S. pneumoniae PSSP CQI 201, read-out: MIC
[21] = S. pneumoniae PRSP (CQR 162), read-out: MIC
[22] = S. pyogenes CIP 56.41T, read-out: MIC
[23] = E. faecium VRE VanA CIP107387, read-out: MIC
[24] = E. faecalis VRE VanA CIP106996, read-out: MIC
[25] = E. faecalis VRE VanB CIP106998, read-out: MIC
[26] = C. difficile CIP 104282, read-out: MIC
[27] = mice, subcutaneously at 1 and 6 h post infection, survival on day 9, hybrid molecules formulated in water as their bis(hydrochloride) salt, read-out: ED50

Row | SMILES | MIC [1, 15] | MIC [2, 16] | MIC (S. aureus MsrA PUL 5054) | MIC [3, 17] | MIC [4, 18] | MIC [5, 19] | MIC [6, 20] | MIC [7, 21] | MIC (S. pyogenes CIP 56.41T; [22]) | MIC [8, 23] | MIC [9, 24] | MIC [10, 25] | MIC (C. difficile CIP 104282; [26]) | ED50 [11, 27] | % of survival cells compared to the untreated controls ([12]; 7.8 μg/mL) | % of survival cells compared to the untreated controls ([12]; 15.6 μg/mL) | % of survival cells compared to the untreated controls ([12]; 31.2 μg/mL) | % of survival cells compared to the untreated controls ([12]; 62.5 μg/mL) | % of survival cells compared to the untreated controls ([12]; 125 μg/mL) | % of survival cells compared to the untreated controls ([12]; 250 μg/mL) | other results
1 | CN[C@H](CC(C)C)C(=O)N[C@H]1C(=O)N[C@@H](CC(N)=O)C(=O)N[C@H]2C(=O)N[C@H]3C(=O)N[C@H](C(=O)N[C@H](C(=O)O)c4cc(O)cc(O)c4-c4cc3ccc4O)[C@H](O)c3ccc(c(Cl)c3)Oc3cc2cc(c3OC2OC(CO)C(O)C(O)C2OC2CC(C)(NCCCCNc3ccnc4cc(Cl)ccc34)C(O)C(C)O2)Oc2ccc(cc2Cl)[C@H]1O (some centres unmarked) [PA 1158, N-4-[4(7-Chloroquinolin-4-ylamino)-butyl]-vancomycin] | 0.1 µg/mL (≈ 0.0595 µM) | 0.2 µg/mL (≈ 0.119 µM) | < 0.045 µg/mL | 0.39 µg/mL (≈ 0.232 µM) | 0.1 µg/mL (≈ 0.0595 µM) | 0.05 µg/mL (≈ 0.0297 µM) | 0.012 µg/mL (≈ 0.00713 µM) | 0.025 µg/mL (≈ 0.0149 µM) | 0.062 µg/mL (≈ 0.0369 µM) | 25 µg/mL (≈ 14.9 µM) | 6.25 µg/mL (≈ 3.72 µM) | 6.25 µg/mL (≈ 3.72 µM) | 0.078 µg/mL (≈ 0.0464 µM) | 0.26 mg/kg | −11.8% | −13.2% | −10.7% | −16.9% | −16.9% | −19.8% | % of survival cells compared to the untreated controls ([12]; 500 μg/mL): −18.4%
2 | CN[C@H](CC(C)C)C(=O)N[C@H]1C(=O)N[C@@H](CC(N)=O)C(=O)N[C@H]2C(=O)N[C@H]3C(=O)N[C@H](C(=O)N[C@H](C(=O)O)c4cc(O)cc(O)c4-c4cc3ccc4O)[C@H](O)c3ccc(c(Cl)c3)Oc3cc2cc(c3OC2OC(CO)C(O)C(O)C2OC2CC(C)(NCc3ccc(OCCNc4ccnc5cc(Cl)ccc45)cc3)C(O)C(C)O2)Oc2ccc(cc2Cl)[C@H]1O (some centres unmarked) [PA 1157, N-4-{4-[2-(7-Chloroquinolin-4-ylamino)ethoxy]-benzyl}-vancomycin] | 0.012 µg/mL (≈ 0.00682 µM) | 0.2 µg/mL (≈ 0.114 µM) | < 0.045 µg/mL | 0.1 µg/mL (≈ 0.0568 µM) | 0.05 µg/mL (≈ 0.0284 µM) | 0.003 µg/mL (≈ 0.0017 µM) | 0.003 µg/mL (≈ 0.0017 µM) | 0.003 µg/mL (≈ 0.0017 µM) | 0.125 µg/mL (≈ 0.071 µM) | 6.25 µg/mL (≈ 3.55 µM) | 3.12 µg/mL (≈ 1.78 µM) | 6.25 µg/mL (≈ 3.55 µM) | 0.078 µg/mL (≈ 0.0443 µM) | 0.09 mg/kg | −22.0% | −22.5% | −24.2% | −24.9% | −26.9% | −26.2% | % of survival cells compared to the untreated controls ([12]; 500 μg/mL): −29.2%
3 | CN[C@H](CC(C)C)C(=O)N[C@H]1C(=O)N[C@@H](CC(N)=O)C(=O)N[C@H]2C(=O)N[C@H]3C(=O)N[C@H](C(=O)N[C@H](C(=O)O)c4cc(O)cc(O)c4-c4cc3ccc4O)[C@H](O)c3ccc(c(Cl)c3)Oc3cc2cc(c3OC2OC(CO)C(O)C(O)C2OC2CC(C)(NCCNc3ccnc4cc(Cl)ccc34)C(O)C(C)O2)Oc2ccc(cc2Cl)[C@H]1O (some centres unmarked) [PA 1159] | 0.2 µg/mL (≈ 0.121 µM) | 0.1 µg/mL (≈ 0.0605 µM) | < 0.045 µg/mL | 0.2 µg/mL (≈ 0.121 µM) | 0.2 µg/mL (≈ 0.121 µM) | 0.05 µg/mL (≈ 0.0302 µM) | 0.006 µg/mL (≈ 0.00363 µM) | 0.025 µg/mL (≈ 0.0151 µM) | 0.125 µg/mL (≈ 0.0756 µM) | 25 µg/mL (≈ 15.1 µM) | 1.56 µg/mL (≈ 0.943 µM) | 12.5 µg/mL (≈ 7.56 µM) | 0.16 µg/mL (≈ 0.0967 µM) | 0.37 mg/kg |  |  |  |  |  |  | 
4 | CN[C@H](CC(C)C)C(=O)N[C@H]1C(=O)N[C@@H](CC(N)=O)C(=O)N[C@H]2C(=O)N[C@H]3C(=O)N[C@H](C(=O)N[C@H](C(=O)O)c4cc(O)cc(O)c4-c4cc3ccc4O)[C@H](O)c3ccc(c(Cl)c3)Oc3cc2cc(c3O[C@@H]2O[C@H](CO)[C@@H](O)[C@H](O)[C@H]2O[C@H]2C[C@](C)(N)[C@H](O)[C@H](C)O2)Oc2ccc(cc2Cl)[C@H]1O [Vancomycin, reference compound] |  |  | 0.75 µg/mL (≈ 0.518 µM) |  |  |  |  |  |  |  |  |  |  |  |  |  |  |  |  |  | MIC [1]: 0.78 µg/mL (≈ 0.538 µM); MIC ([2]; MRSA): 0.78 µg/mL (≈ 0.538 µM); MIC [3]: 1.56 µg/mL (≈ 1.08 µM); MIC [4]: 1.56 µg/mL (≈ 1.08 µM); MIC [5]: 0.78 µg/mL (≈ 0.538 µM); MIC [6]: 0.2 µg/mL (≈ 0.138 µM); MIC ([7]; PRSP): 0.39 µg/mL (≈ 0.269 µM); MIC (S. pyogenes CIP 56.41T): 0.2 µg/mL (≈ 0.138 µM); MIC [8]: > 50 µg/mL; MIC [9]: > 50 µg/mL; MIC [10]: 25 µg/mL (≈ 17.3 µM); MIC (C. difficile CIP 104282): 0.31 µg/mL (≈ 0.214 µM); ED50 [11]: 0.16 mg/kg
5 | Cl.O=C(O)c1cn(C2CC2)c2cc(N3CCN(c4ccnc5c(Cl)cccc45)CC3)c(F)cc2c1=O [PA 1285, 7-[4-(8-Chloroquinolin-4-yl)-piperazin-1-yl]-1-cyclopropopyl-6-fluoro-4-oxo-1,4-dihydroquinoline-3-carboxylic acid hydrochloride salt] | 0.02 µg/mL |  |  |  |  |  |  |  |  |  |  |  |  |  |  |  |  |  |  |  | MIC (S. pneumoniae PRSP): 0.039 µg/mL; MIC [13]: 0.156 µg/mL; MIC (H. influenzae CIP 102514): 0.312 µg/mL; MIC (E. coli CIP 54127): 0.625 µg/mL; MIC (P. aeruginosa CIP 103467): > 5 µg/mL; MIC [14]: 0.156 µg/mL
